Assay: xn = mol fraction of the nth substance listed
Settings: Liquid, Vibrating tube method

CCCCCCCCCCCCCCCC [hexadecane] + CCCCCCCCCC
mass density [kg/m3]
Settings | 1000 kPa | 2000 kPa | 3000 kPa | 4000 kPa | 5000 kPa | 6000 kPa | 7000 kPa | 8000 kPa | 9000 kPa | 10000 kPa
295 K, x2 = 0.25 | 760.6 | 761.3 | 762 | 762.6 | 763.3 | 764 | 764.6 | 765.3 | 765.9 | 766.6
295 K, x2 = 0.75 | 739.6 | 740.4 | 741.1 | 741.8 | 742.5 | 743.3 | 744 | 744.7 | 745.4 | 746.2
295.3 K, x2 = 0.5 | 751 | 751.7 | 752.4 | 753.1 | 753.8 | 754.5 | 755.1 | 755.8 | 756.5 | 757.2
